Holding throughout (format): functional, cell-based
Data set [1] concerns the target T1, Solute carrier family 22 member 6 (Mus musculus, UniProt Q8VC69).
T1 sequence (Q8VC69 whole entry): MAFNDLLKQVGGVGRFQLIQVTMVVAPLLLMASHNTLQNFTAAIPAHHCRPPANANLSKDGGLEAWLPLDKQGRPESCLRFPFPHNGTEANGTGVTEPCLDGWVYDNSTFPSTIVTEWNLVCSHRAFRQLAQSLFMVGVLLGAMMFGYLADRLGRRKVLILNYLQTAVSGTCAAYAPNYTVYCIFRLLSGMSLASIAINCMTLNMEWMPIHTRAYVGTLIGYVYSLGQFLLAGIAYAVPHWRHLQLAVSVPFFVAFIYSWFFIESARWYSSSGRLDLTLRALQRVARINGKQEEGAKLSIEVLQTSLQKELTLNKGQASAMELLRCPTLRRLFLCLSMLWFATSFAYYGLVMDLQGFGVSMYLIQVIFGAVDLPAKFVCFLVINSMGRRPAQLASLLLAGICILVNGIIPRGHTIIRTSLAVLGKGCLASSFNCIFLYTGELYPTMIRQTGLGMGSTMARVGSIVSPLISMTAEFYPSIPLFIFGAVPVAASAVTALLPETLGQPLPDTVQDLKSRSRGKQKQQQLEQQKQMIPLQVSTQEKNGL
As to the kind of experiment: TP_TRANSPORTER: inhibition of PAH uptake (PAH: 20 uM, Riboflavin: 1000 uM) in OAT-expressing COS-7 cells. As to conditions: monkey, cos-7, 1000 µM.

The target of data set [2] is T1, Solute carrier family 22 member 6. The experiment in a line: TP_TRANSPORTER: inhibition of PAH uptake (PAH: 20 uM, Enalapril: 1000 uM) in OAT-expressing COS-7 cells. As to conditions: monkey, cos-7, 1000 µM.
Data set [3] has the same target. The experiment in a line: TP_TRANSPORTER: inhibition of PAH uptake (PAH: 20 uM, Folic acid: 1000 uM) in OAT-expressing COS-7 cells. As to conditions: monkey, cos-7, 1000 µM.
Data set [4] has the same target. As to the kind of experiment: TP_TRANSPORTER: inhibition of PAH uptake (PAH: 20 uM, Diclofenac: 1000 uM) in OAT-expressing COS-7 cells. As to conditions: monkey, cos-7, 1000 µM.
Data set [5] shares this target. The experiment in a line: TP_TRANSPORTER: inhibition of PAH uptake (PAH: 20 uM, alpha-KG: 1000 uM) in OAT-expressing COS-7 cells. The following applies: monkey, cos-7, 1000 µM.
Data set [6] has the same target. As to the kind of experiment: TP_TRANSPORTER: inhibition of PAH uptake (PAH: 20 uM, Carprofen: 1000 uM) in OAT-expressing COS-7 cells. As to conditions: monkey, cos-7, 1000 µM.
The target is the same in data set [7]. The experiment in a line: TP_TRANSPORTER: inhibition of PAH uptake (PAH: 20 uM, Sulindac: 1000 uM) in OAT-expressing COS-7 cells. As to conditions: monkey, cos-7, 1000 µM.
The target is the same in data set [8]. As to the kind of experiment: TP_TRANSPORTER: inhibition of PAH uptake (PAH: 20 uM, Indomethacin: 1000 uM) in OAT-expressing COS-7 cells. As to conditions: monkey, cos-7, 1000 µM.
Data set [9] shares this target. The experiment in a line: TP_TRANSPORTER: inhibition of PAH uptake (PAH: 20 uM, Pantothenic acid: 1000 uM) in OAT-expressing COS-7 cells. The following applies: monkey, cos-7, 1000 µM.
For data set [10] the target is unchanged. The experiment in a line: TP_TRANSPORTER: inhibition of PAH uptake (PAH: 20 uM, Semustine: 300 uM) in OAT-expressing COS-7 cells. As to conditions: monkey, cos-7, 300 µM.
The target is the same in data set [11]. The experiment in a line: TP_TRANSPORTER: inhibition of PAH uptake (PAH: 20 uM, Captopril: 1000 uM) in OAT-expressing COS-7 cells. As to conditions: monkey, cos-7, 1000 µM.

The structures appear in SMILES notation.

On to `Cc1cc2nc3c(=O)[nH]c(=O)nc-3n(C[C@H](O)[C@H](O)[C@H](O)CO)c2cc1C` [RIBOFLAVIN], for which the Activity entry in [1] was “inhibitor [(at a rough estimate) 40 % of control]”.
Take `CCOC(=O)[C@H](CCc1ccccc1)N[C@@H](C)C(=O)N1CCC[C@H]1C(=O)O` [ENALAPRIL]: the Activity entry in data set [2] is “inhibitor [(at a rough estimate) 45 % of control]”.
Regarding `Nc1nc2ncc(CNc3ccc(C(=O)N[C@@H](CCC(=O)O)C(=O)O)cc3)nc2c(=O)[nH]1` [FOLIC ACID], the Activity entry in data set [3] is “inhibitor [(at a rough estimate) 55 % of control]”.
As for `O=C(O)Cc1ccccc1Nc1c(Cl)cccc1Cl` [DICLOFENAC], in [4], the Activity result was “inhibitor [(at a rough estimate) 5 % of control]”.
Take `O=C(O)CCC(=O)C(=O)O` [ALPHA-KETOGLUTARIC ACID]: the Activity entry in data set [5] is “inhibitor [(at a rough estimate) 10 % of control]”.
For `CC(C(=O)O)c1ccc2c(c1)[nH]c1ccc(Cl)cc12` (stereo unspecified) [CARPROFEN], the Activity entry in [6] was “inhibitor [(at a rough estimate) 5 % of control]”.
Consider `CC1=C(CC(=O)O)c2cc(F)ccc2/C1=C\c1ccc([S+](C)[O-])cc1` (stereo unspecified) [SULINDAC], for which the Activity entry in [7] was “inhibitor [(at a rough estimate) 5 % of control]”.
With `COc1ccc2c(c1)c(CC(=O)O)c(C)n2C(=O)c1ccc(Cl)cc1` [INDOMETHACIN], the Activity result in data set [8] was “inhibitor [(at a rough estimate) 5 % of control]”.
As to `CC(C)(CO)[C@@H](O)C(=O)NCCC(=O)O` [PANTOTHENIC ACID], the Activity entry in data set [9] was “inhibitor [(at a rough estimate) 60 % of control]”.
On to `CC1CCC(NC(=O)N(CCCl)N=O)CC1` (stereo unspecified) [SEMUSTINE], for which the Activity result in [10] is “inhibitor [(at a rough estimate) 35 % of control]”.
For the compound `C[C@H](CS)C(=O)N1CCC[C@H]1C(=O)O` [CAPTOPRIL], the Activity result in data set [11] was “inhibitor [(at a rough estimate) 50 % of control]”.

(Values after ChEMBL document CHEMBL2073839, “Heterologous expression and functional characterization of a mouse renal organic anion transporter in mammalian cells” (J Biol Chem, 1999).)
